Earlier results in patent US7060295B2, “Formulations for the prevention and treatment of insulin resistance and type 2 diabetes mellitus” (ChronoRX LLC, priority 2000, dated 2006).

Assays:
[1] = test system: perfused rat hearts
[2] = in vivo
[3] = oral 60 mg twice daily for 8 weeks
[4] = test system: insulin secreting β-cells
[5] = 600 mg/day, used alone, obese type 2 diabetes patients
[6] = supplementation
[7] = target: sulfonylurea receptor (Homo sapiens, UniProt Q09428); settings: β-cell membrane receptors
sulfonylurea receptor, sequence (Q09428 whole entry): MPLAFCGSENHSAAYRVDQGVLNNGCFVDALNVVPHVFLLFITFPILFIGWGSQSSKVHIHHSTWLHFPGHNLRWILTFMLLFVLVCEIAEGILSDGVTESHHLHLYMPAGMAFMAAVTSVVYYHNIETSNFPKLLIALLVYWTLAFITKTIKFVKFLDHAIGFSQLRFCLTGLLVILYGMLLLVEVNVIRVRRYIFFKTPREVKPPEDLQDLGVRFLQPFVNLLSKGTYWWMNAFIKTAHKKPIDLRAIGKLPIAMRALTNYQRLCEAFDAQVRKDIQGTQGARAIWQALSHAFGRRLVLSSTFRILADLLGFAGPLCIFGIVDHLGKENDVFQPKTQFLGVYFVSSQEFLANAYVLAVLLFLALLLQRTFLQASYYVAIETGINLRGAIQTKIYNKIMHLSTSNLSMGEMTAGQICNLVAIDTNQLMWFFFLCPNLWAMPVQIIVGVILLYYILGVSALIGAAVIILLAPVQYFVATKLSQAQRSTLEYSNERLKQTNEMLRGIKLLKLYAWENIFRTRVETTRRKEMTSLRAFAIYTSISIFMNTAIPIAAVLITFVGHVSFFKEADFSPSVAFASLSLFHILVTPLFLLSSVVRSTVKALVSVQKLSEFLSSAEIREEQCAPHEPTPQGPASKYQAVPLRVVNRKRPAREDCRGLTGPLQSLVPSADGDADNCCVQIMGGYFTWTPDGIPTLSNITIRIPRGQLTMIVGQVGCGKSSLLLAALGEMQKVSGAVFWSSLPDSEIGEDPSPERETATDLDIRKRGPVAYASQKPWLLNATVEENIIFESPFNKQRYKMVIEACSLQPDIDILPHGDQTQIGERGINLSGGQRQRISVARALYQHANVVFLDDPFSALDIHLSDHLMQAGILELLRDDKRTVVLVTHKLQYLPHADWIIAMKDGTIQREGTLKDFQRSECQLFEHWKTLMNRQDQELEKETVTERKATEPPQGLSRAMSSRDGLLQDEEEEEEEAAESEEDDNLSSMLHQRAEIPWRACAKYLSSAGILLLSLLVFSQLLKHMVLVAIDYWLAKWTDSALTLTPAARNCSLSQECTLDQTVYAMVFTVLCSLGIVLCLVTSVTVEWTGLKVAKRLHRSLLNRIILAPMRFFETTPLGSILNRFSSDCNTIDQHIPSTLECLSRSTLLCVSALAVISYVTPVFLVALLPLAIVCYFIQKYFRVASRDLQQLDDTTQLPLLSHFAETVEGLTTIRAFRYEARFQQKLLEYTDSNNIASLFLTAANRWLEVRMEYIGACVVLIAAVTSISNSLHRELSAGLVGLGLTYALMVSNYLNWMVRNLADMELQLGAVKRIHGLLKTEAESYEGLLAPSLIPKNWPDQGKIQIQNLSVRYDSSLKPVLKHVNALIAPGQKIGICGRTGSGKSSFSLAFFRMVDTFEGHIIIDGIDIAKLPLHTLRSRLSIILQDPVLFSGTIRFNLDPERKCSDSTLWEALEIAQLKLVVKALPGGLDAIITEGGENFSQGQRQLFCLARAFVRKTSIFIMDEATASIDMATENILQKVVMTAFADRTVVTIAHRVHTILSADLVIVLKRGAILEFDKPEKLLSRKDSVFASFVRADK
sulfonylurea receptor, sequence (Q14654 whole entry partner): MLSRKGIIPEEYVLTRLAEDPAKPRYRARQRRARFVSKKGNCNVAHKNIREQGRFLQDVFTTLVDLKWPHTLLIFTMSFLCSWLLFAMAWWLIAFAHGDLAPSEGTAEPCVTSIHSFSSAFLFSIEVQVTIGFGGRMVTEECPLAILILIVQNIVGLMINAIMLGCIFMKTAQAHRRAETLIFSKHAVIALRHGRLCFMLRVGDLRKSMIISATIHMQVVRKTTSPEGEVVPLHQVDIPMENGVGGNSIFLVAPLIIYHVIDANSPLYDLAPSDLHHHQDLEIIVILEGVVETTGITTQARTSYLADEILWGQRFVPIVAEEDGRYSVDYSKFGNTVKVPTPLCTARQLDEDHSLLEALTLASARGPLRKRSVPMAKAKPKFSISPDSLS

[8] = not given; remark: listed apart in the source
[9] = test system: pancreatic islets; settings: islets simultaneously exposed to IL-1 beta
[10] = in vivo; remark: listed apart in the source
[11] = not given; remark: listed apart in the source
[12] = 1 year, 457 non-diabetic patients with android (abdominal) obesity
[13] = in vivo; remark: listed apart in the source

Molecule: COc1ccc(Cl)cc1C(=O)NCCc1ccc(S(=O)(=O)NC(=O)NC2CCCCC2)cc1 [Glyburide]
- glycolytic flux and lactate production [1]: dramatic increase

Molecule: CCCCNC(=O)NS(=O)(=O)c1ccc(C)cc1 [Tolbutamide]
- Duration of Action [2]: 6 to 12 h

Molecule: COC1=C(OC)C(=O)C(C/C=C(\C)CC/C=C(\C)CC/C=C(\C)CC/C=C(\C)CC/C=C(\C)CC/C=C(\C)CC/C=C(\C)CC/C=C(\C)CC/C=C(\C)CCC=C(C)C)=C(C)C1=O [coenzyme Q10, Ubiquinone]
- HDL-cholesterol [3]: increased
- systolic and diastolic blood pressure, fasting and 2-h plasma insulin, glucose, triglycerides, lipid peroxides, malondialdehyde and diene conjugates [3]: all reduced

Molecule: CC(=O)c1ccc(S(=O)(=O)NC(=O)NC2CCCCC2)cc1 [Acetohexamide]
- Duration of Action [2]: 12 to 18 h

Molecule: O=C1O[C@H]([C@@H](O)CO)C(O)=C1O [ascorbate, ascorbic acid]
- decrease of cellular insulin glycation [4]: 66–80%

Molecule: vitamin E
- insulin efficiency [5]: further worsen insulin efficiency

Molecule: [Cr] [Cr, Chromium]
- reduction of metformin requirements [6]: more than one-half

Molecule: Cc1cnc(C(=O)NCCc2ccc(S(=O)(=O)NC(=O)NC3CCCCC3)cc2)cn1 [Glipizide]
- Duration of Action [2]: 12 to 24 h
- concentration range that saturates sulfonylurea receptors [7]: low nM

Molecule: Cc1cnc(C(=O)NCCc2ccc(S(=O)(=O)NC(=O)NC3CCCCC3)cc2)cn1 [Glipizide (XL), Glipizide]
- Duration of Action [2]: 24 h

Molecule: CCC1=C(C)CN(C(=O)NCCc2ccc(S(=O)(=O)NC(=O)N[C@H]3CC[C@H](C)CC3)cc2)C1=O [Glimepiride]
- Duration of Action [2]: 16 to 24 h

Molecule: C[N+](C)(C)CC(O)CC(=O)[O-] (stereo not drawn) [carnitine, beta-hydroxy-gamma-N-trimethylaminobutyric acid]
- amount absorbed from the intestine (oral): 15 to 87 % of ingested carnitine
- tissue concentrations relative to plasma (skeletal and cardiac muscle, active transport): 20- to 50 fold

Molecule: O=S(=O)([O-])[O-].[O]=[V+2] [vanadyl sulfate]
- duration of effects after discontinuation ([8]; 100 mg/day for 3 weeks): up to 2 weeks
- hepatic and peripheral insulin sensitivity ([8]; 100 mg/day, after 3 weeks): appear to improve

Molecule: NC(=O)c1cccnc1 [nicotinamide]
- concentration of maximum effect on recovery of glucose-induced insulin secretion [9]: 25 mmol/L

Molecule: CN(C)C(=N)N=C(N)N [Metformin, metformin]
- lactic acidosis, reported frequency [10]: 3 cases per 100,000 patient-years
- lactic acidosis, reported incidence [10]: 0.03 /1,000 patient-years exposure
- decrease of low-density lipoprotein (LDL) cholesterol levels ([11]; monotherapy): 10% to 15%
- decrease of plasma triglyceride levels ([11]; monotherapy): 10% to 15%
- weight loss ([11]; patients with type 2 diabetes, first 6 months of treatment): 2 to 3 kg
- weight change [12]: significant weight loss
- gastrointestinal side effects (diarrhea, nausea, abdominal pain, metallic taste) [13]: 20% to 30%

Molecule: CCCNC(=O)NS(=O)(=O)c1ccc(Cl)cc1 [Chlorpropamide]
- Duration of Action [2]: 60 h
